Test: photoluminescence quantum yield (fraction); solvent given as SMILES
[1] = in c1cc(-n2c3ccccc3c3ccccc32)cc(-n2c3ccccc3c3ccccc32)c1

COc1ccc(N2c3cc(OC)ccc3N=c3cc4c(cc32)=Nc2cc(C(C)(C)C)cc(C(C)(C)C)c2O4)cc1
photoluminescence quantum yield (in CCCCCC): 0.31

Cn1c(=O)c(/N=N/c2ccc(/N=N/c3ccc(S(=O)(=O)O)cc3)cc2)c(O)c2ccccc21
photoluminescence quantum yield (in CS(C)=O): 0.05

CC(C)(C)NC(=O)c1ccc(C(=O)NC(C)(C)C)c2c1c1c3ccc(Cl)cc3c3cc(Cl)ccc3c1c1c3ccc(Cl)cc3c3cc(Cl)ccc3c21
photoluminescence quantum yield (in ClCCl): 0.07

COc1ccc2cc(/C=C/c3ccccc3)c(=O)oc2c1
photoluminescence quantum yield (in CC#N): 0.71

COc1ccc(C2=Cc3ccc4ccccc4[n+]3[B-](F)(F)O2)cc1
photoluminescence quantum yield (in ClC(Cl)Cl): 0.94

O=C1c2ccccc2C2=C(c3ccccn3)NN=C(c3ccccn3)C2c2ccccc21 (stereo unspecified)
photoluminescence quantum yield (in CC#N): 0.41

Cc1cc(=O)cc(-c2ccc(-c3nc4ccccn4c3NC3CCCCC3)cc2)o1
photoluminescence quantum yield (in ClCCl): 0.019

O=S1(=O)c2ccccc2C2(c3cc(-c4ccc(N(c5ccccc5)c5ccccc5)cc4)ccc3-c3ccc(-c4ccc(N(c5ccccc5)c5ccccc5)cc4)cc32)c2ccccc21
photoluminescence quantum yield (in ClCCl): 0.83 | photoluminescence quantum yield [1]: 0.9

Cn1cc(/C=C/C(=O)c2ccccc2)c2ccccc21
photoluminescence quantum yield (in C1CCOC1): 0.1 | photoluminescence quantum yield (in C1COCCO1): 0.114 | photoluminescence quantum yield (in CC#N): 0.343 | photoluminescence quantum yield (in CC(C)=O): 0.329 | photoluminescence quantum yield (in CC(C)O): 0.231 | photoluminescence quantum yield (in CCC(=O)CC): 0.209 | photoluminescence quantum yield (in CCCC#N): 0.217 | photoluminescence quantum yield (in CCCC(C)=O): 0.22 | photoluminescence quantum yield (in CCCCCCCCO): 0.345 | photoluminescence quantum yield (in CCCCCCO): 0.428 | photoluminescence quantum yield (in CCCCO): 0.333 | photoluminescence quantum yield (in CCCO): 0.5 | photoluminescence quantum yield (in CCO): 0.173 | photoluminescence quantum yield (in CN(C)C=O): 0.245 | photoluminescence quantum yield (in CO): 0.162 | photoluminescence quantum yield (in CS(C)=O): 0.62 | photoluminescence quantum yield (in ClC(Cl)Cl): 0.14 | photoluminescence quantum yield (in ClCCl): 0.394 | photoluminescence quantum yield (in NC=O): 0.277 | photoluminescence quantum yield (in O): 0.12 | photoluminescence quantum yield (in OC1CCCCC1): 0.778

CCOC(=O)/N=c1/oc2cc(OC)cc(OC)c2cc1C#N
photoluminescence quantum yield (in ClCCl): 0.059

COC(=O)c1cc(=O)n(C)c2cc(-c3cc(OC)c(OC)c(OC)c3)sc12
photoluminescence quantum yield (in CC#N): 0.38 | photoluminescence quantum yield (in ClCCl): 0.53

CC(C)(C)c1ccc(C2=c3sc(-c4ccc(C(C)(C)C)cc4)cc3=[N+]3C2=Nc2c(-c4ccc(C(C)(C)C)cc4)c4sc(-c5ccc(C(C)(C)C)cc5)cc4n2[B-]3(F)F)cc1
photoluminescence quantum yield (in ClC(Cl)Cl): 0.12

N#Cc1ccc(/C=C2\N=C(c3ccccc3)OC2=O)cc1
photoluminescence quantum yield (in C1COCCO1): 0.028

CCCCCCn1c2ccccc2c2cc3c4cc5c6ccccc6n(CCCCCC)c5cc4c4cc5c(C)cc(=O)oc5cc4c3cc21
photoluminescence quantum yield (in ClC(Cl)Cl): 0.12

O=C(O)c1ccccc1
photoluminescence quantum yield (in O): 0.001

CC1(C)c2ccccc2N(c2ccc3c(c2)C(C)(C)c2cc(N4c5ccccc5C(C)(C)c5ccccc54)ccc2S3(=O)=O)c2ccccc21
photoluminescence quantum yield (in O=P(c1ccccc1)(c1ccccc1)c1ccccc1Oc1ccccc1P(=O)(c1ccccc1)c1ccccc1): 0.8

Cc1ccc(N2C(c3ccccc3[N-]S(=O)(=O)c3ccc(C)cc3)=[NH+]C(c3ccccc3)C2c2ccccc2)cc1 (stereo unspecified)
photoluminescence quantum yield (in Cc1ccccc1): 0.396

Cc1cc(C)c(-c2cc(-c3c(C)cc(C)cc3C)c3ccc4c(-c5c(C)cc(C)cc5C)cc(-c5c(C)cc(C)cc5C)c5ccc2c3c54)c(C)c1
photoluminescence quantum yield (in ClCCl): 0.28

CCOC(=O)c1c2c3c(ccc([N+](=O)[O-])c3c3cc4ccccc4cc13)N(C)C2=O
photoluminescence quantum yield (in CC#N): 0.41

CN(C)c1ccc(N2c3sc4ccccc4c3Sc3c2sc2ccccc32)cc1
photoluminescence quantum yield (in ClCCl): 0.19

O=C(c1ccccc1)c1cc2ccc1CCc1ccc(c(-c3ccc(N(c4ccccc4)c4ccccc4)cc3)c1)CC2
photoluminescence quantum yield [1]: 0.15

CCN(CC)c1ccc2c(C)cc(=O)oc2c1
photoluminescence quantum yield (in CCCCCCCCO): 0.68 | photoluminescence quantum yield (in CCCCCCO): 0.66 | photoluminescence quantum yield (in CCCCO): 0.61 | photoluminescence quantum yield (in CCCO): 0.62 | photoluminescence quantum yield (in CCO): 0.41 | photoluminescence quantum yield (in CO): 0.26 | photoluminescence quantum yield (in O): 0.041

O=c1oc2ccccc2c2cc(N3c4ccccc4Oc4ccccc43)ccc12
photoluminescence quantum yield (in c1cc(-c2cccc(-n3c4ccccc4c4ccccc43)c2)cc(-n2c3ccccc3c3ccccc32)c1): 0.52

Reference: the Deep4Chem optical property database
